# Measurements taken from US8399214B2 (Evonik Degussa GmbH, priority 2005, dated 2013).
# Values joined by “and” are separate entries in the source; they are usually repeats but may differ in a detail not shown here. Equal entries are not always repeated. Where two headings read alike, the source gives them in different places.
# Tests used:
# [1] = system: C. glutamicum OM63 (ΔmetF); format: cell-based; details: 36 hours at 30° C.
# Text: (§1) M2014 was transformed with plasmid pOM86 (FIG. 9) (SEQ ID NO:8) to yield a “Campbell in” strain. The “Campbell in” strain was then “Cambelled out” to yield a “Campbell out” strain named OM63.
# [2] = system: C. glutamicum M2014; experiment: Test tube growth in methionine-free medium with canola oil as DMDS delivery system; format: cell-based; details: MF + Canola Oil + 0.2% DMDS, 24 hours at 30° C.
# Text: (§2) Other possible delivery systems include synthetic oils, organic solvents, chloro-carbons, fluoro-carbons, or chloro-fluoro-carbons.
# [3] = system: E. coli CGSC 3592 (metF64); experiment: Growth on methionine free agar with DMDS in a centre well; format: cell-based; details: 50 microliters DMDS in well, 30° C.
# Protocol: (§3) The selection was for resistance to kanamycin sulfate at 25 mg/L on rich medium […] agar).
# [4] = system: E. coli RY714B (metE::Tn10, ΔmetH); experiment: as above; format: cell-based; details: 50 microliters DMDS in well, 30° C.
# Protocol: as §3
# [5] = system: C. glutamicum M2014 (parent); experiment: Test tube growth in methionine-free medium, DMDS added directly; details: for Optical densities at 600 nm: M2014, 36 hours at 30° C.
# Text: as §1
# [6] = system: C. glutamicum OM101 (ΔmetF, ΔmetB); details: DMDS 0.2%, XAD4, 60 hours at 30° C.
# Protocol: (§6) A test tube experiment was performed with M2014 derivatives that contain different combinations of deletions of metY, metB, and metF. […] The inoculum was approximately 5×10^3 cells per tube. Cells were grown at 30° C. in a platform shaker for 60 hours, and cell densities were measured at OD600.
# [7] = system: C. glutamicum M2014; experiment: Test tube growth in methionine-free medium with mineral oil as DMDS delivery system; details: for Optical densities at 600 nm: 24 hours at 30° C.
# Text: as §2
# [8] = system: C. glutamicum OM246C (ΔmetH, ΔmetE); format: cell-based; details: 24 hours at 30° C.
# Text: as §2
# [9] = system: C. glutamicum OM246C (ΔmetH, ΔmetE); details: for Optical densities at 600 nm: OM246C, 24 hours at 30° C.
# Text: as §2
# [10] = system: C. glutamicum OM174 (ΔmetF, ΔmetB, ΔmetY); details: DMDS 0.2%, XAD4, 60 hours at 30° C.
# Protocol: as §6
# [11] = system: C. glutamicum OM158 (ΔmetF, ΔmetY); details: DMDS 0.2%, XAD4, 60 hours at 30° C.
# Protocol: as §6
# [12] = system: C. glutamicum OM246C; experiment: Shake flask study in molasses medium with XAD4, amino acid production with DMDS; format: cell-based; details: 80 μl DMDS (0.4% v/v), XAD4, 30° C.
# Protocol: Samples were taken from the medium and assayed for amino acid content. […] (AGILENT). A pre-column derivatization of the sample with ortho-phthalaldehyde allowed the quantification of produced amino acids after separation on a Hypersil AA-column (AGILENT).
# A shake flask experiment was performed where OM246C was compared to M2014. […] Thus, the production of methionine occurs from the conversion of O-acetyl-homoserine directly to methionine, bypassing homocysteine.
# [13] = system: C. glutamicum OM246C (ΔmetE, ΔmetH); format: cell-based; details: XAD4, 24 hours at 30° C.
# Protocol: (§4) To each test tube 100 μl of a sterile suspension of XAD4 in water (50% v/v) was added.
# [14] = system: C. glutamicum OM101C (ΔmetF, ΔmetB); format: cell-based; details: XAD4, 24 hours at 30° C.
# Protocol: as §4
# [15] = system: C. glutamicum OM63 (ΔmetF)
# Protocol: (§5) To this end, test tube experiments using 5 ml of medium were performed on OM63 and M2014.
# as §4
# [16] = system: C. glutamicum M2014; experiment: Test tube growth in methionine-free medium with Amberlite XAD4 as DMDS delivery system
# Protocol: as §5, §4
# [17] = system: OM101 (ΔmetB,ΔmetF); experiment: Lawn growth on methionine-free agar plates with liquid or gaseous DMDS; format: cell-based, C. glutamicum; details: for killing zone: 48-60 hours
# Protocol: Control plates received the lawn of cells, but no DMDS. The plates were placed together in a sealed polypropylene plastic box that was slightly bigger than the stack of plates and incubated at 30° C. for 48-60 hours. […] Normally, when a required nutrient is placed in the middle of a lawn that is auxotrophic for the nutrient, a gradient of growth is seen, with the most rapid growth occurring closest to the nutrient.
# The plates were incubated at 30° C. enclosed in an airtight plastic box. […] This could be accomplished by evaporating or boiling DMDS and pumping the DMDS vapor into the fermentation vessel, or by bubbling air or oxygen through liquid DMDS on its route to the fermentation vessel.
compound,measurement,setting,value
"CSSC [DMDS, dimethyl disulfide]",Optical densities at 600 nm,[1]; MF + 0.02% DMDS,5.4
same,Optical densities at 600 nm,[1]; MF + 0.04% DMDS,5.9
same,Optical densities at 600 nm,[1]; MF + 0.06% DMDS,5.2
same,Optical densities at 600 nm,[1]; MF + 0.08% DMDS,0.2
same,Optical densities at 600 nm,[1]; MF + 0.1% DMDS,0.0
same,Optical densities at 600 nm,[2],1.5 and 1.4
same,growth on methionine free agar with DMDS,[3]; CGSC 3592 transformed with empty vector pCLIK,neither strain transformed with empty vector pCLIK grew
same,growth on methionine free agar with DMDS,[3]; CGSC 3592 transformed with pH309 or pH357 (metY),grew on the plates
same,growth on methionine free agar with DMDS,[4]; RY714B transformed with empty vector pCLIK,neither strain transformed with empty vector pCLIK grew
same,growth on methionine free agar with DMDS,[4]; RY714B transformed with pH309 or pH357 (metY),grew on the plates
same,Optical densities at 600 nm,[5]; MF + 0.02% DMDS,5.5
same,Optical densities at 600 nm,[5]; MF + 0.04% DMDS,5.3
same,Optical densities at 600 nm,[5]; MF + 0.06% DMDS,6.6
same,Optical densities at 600 nm,[5]; MF + 0.08% DMDS,0.0
same,Optical densities at 600 nm,[5]; MF + 0.1% DMDS,0.0
same,amount of DMDS tolerated by the cells,[5]; added directly to liquid cultures,less than 0.06%
same,amount at which DMDS is toxic,[5]; added directly to liquid cultures of C. glutamicum,greater than 0.06%
same,OD600,[6],2.4 and 1.8
same,maximum amount of DMDS that allowed cell growth,[7]; DMDS in mineral oil,0.8%
same,Optical densities at 600 nm,[7]; MF + Mineral Oil + 0.2% DMDS,1.4 and 1.2
same,Optical densities at 600 nm,[7]; MF + Mineral Oil + 0.4% DMDS,1.5 and 1.3
same,Optical densities at 600 nm,[7]; MF + Mineral Oil + 0.8% DMDS,1.4 and 1.7
same,Optical densities at 600 nm,[7]; MF + Mineral Oil + 1.2% DMDS,0.0
same,Optical densities at 600 nm,[8]; MF + Canola Oil + 0.2% DMDS,1.9 and 1.7
same,Optical densities at 600 nm,[8]; MF + Canola Oil + 0.4% DMDS,1.1 and 1.3
same,Optical densities at 600 nm,[8]; MF + Canola Oil + 0.8% DMDS,0.0
same,maximum amount of DMDS that allowed cell growth,"[9]; DMDS in mineral oil, strain printed as OM63",0.4%
same,Optical densities at 600 nm,[9]; MF + Mineral Oil + 0.2% DMDS,1.1 and 1.6
same,Optical densities at 600 nm,[9]; MF + Mineral Oil + 0.4% DMDS,1.2 and 1.5
same,Optical densities at 600 nm,[9]; MF + Mineral Oil + 0.8% DMDS,0.0
same,Optical densities at 600 nm,[9]; MF + Mineral Oil + 1.2% DMDS,0.0
same,OD600,[10],0.0
same,OD600,[11],0.0
same,Gly + Hse,[12],1.7 g/L and 1.3 g/L
same,Ile,[12],0.0 g/L
same,Lys,[12],3.2 g/L and 3.4 g/L
same,OD600,[12],32 and 35
same,O—Ac-hse,[12],4.6 g/L and 4.3 g/L
same,Optical densities at 600 nm,[13]; DMDS 0.1%,4.3 and 4.5
same,Optical densities at 600 nm,[13]; DMDS 0.2%,4.2 and 3.8
same,Optical densities at 600 nm,[13]; DMDS 0.3%,3.3 and 3.6
same,Optical densities at 600 nm,[13]; DMDS 0.4%,3.6 and 3.2
same,Optical densities at 600 nm,[13]; DMDS 0.5%,3.1 and 2.4
same,Optical densities at 600 nm,[14]; DMDS 0.1%,2.5 and 2.7
same,Optical densities at 600 nm,[14]; DMDS 0.2%,3.1 and 3.9
same,Optical densities at 600 nm,[14]; DMDS 0.3%,1.6 and 0.8
same,Optical densities at 600 nm,[14]; DMDS 0.4%,0.05 and 0.03
same,Optical densities at 600 nm,[14]; DMDS 0.5%,0.02 and 0.01
same,Optical densities at 600 nm,"[15]; DMDS 0.1%, XAD4, 24 hours at 30° C.",3.0 and 3.3
same,Optical densities at 600 nm,"[15]; DMDS 0.1%, XAD4, 42 hours at 30° C.",6.3
same,Optical densities at 600 nm,"[15]; DMDS 0.2%, XAD4, 24 hours at 30° C.",1.7 and 3.4
same,Optical densities at 600 nm,"[15]; DMDS 0.2%, XAD4, 42 hours at 30° C.",6.5
same,OD600,"[15]; DMDS 0.2%, XAD4, 60 hours at 30° C.",1.2 and 1.3
same,Optical densities at 600 nm,"[15]; DMDS 0.3%, XAD4, 24 hours at 30° C.",3.9 and 2.1
same,Optical densities at 600 nm,"[15]; DMDS 0.3%, XAD4, 42 hours at 30° C.",4.9
same,Optical densities at 600 nm,"[15]; DMDS 0.4%, XAD4, 24 hours at 30° C.",1.5 and 1.6
same,Optical densities at 600 nm,"[15]; DMDS 0.4%, XAD4, 42 hours at 30° C.",3.6
same,Optical densities at 600 nm,"[15]; DMDS 0.5%, XAD4, 24 hours at 30° C.",0.1
same,Optical densities at 600 nm,"[15]; DMDS 0.5%, XAD4, 42 hours at 30° C.",1.6
same,maximum amount of DMDS that allowed cell growth,[15]; DMDS with Amberlite XAD4,0.4%
same,Optical densities at 600 nm,"[16]; M2014, DMDS 0.1%, XAD4, 24 hours at 30° C.",4.4 and 4.3
same,Optical densities at 600 nm,"[16]; M2014, DMDS 0.1%, XAD4, 42 hours at 30° C.",6.6
same,Optical densities at 600 nm,"[16]; M2014, DMDS 0.2%, XAD4, 24 hours at 30° C.",4.0 and 4.2
same,Optical densities at 600 nm,"[16]; M2014, DMDS 0.2%, XAD4, 42 hours at 30° C.",6.9
same,OD600,"[16]; M2014, DMDS 0.2%, XAD4, 60 hours at 30° C.",4.5 and 3.6
same,Optical densities at 600 nm,"[16]; M2014, DMDS 0.3%, XAD4, 24 hours at 30° C.",3.8 and 3.5
same,Optical densities at 600 nm,"[16]; M2014, DMDS 0.3%, XAD4, 42 hours at 30° C.",7.3
same,Optical densities at 600 nm,"[16]; M2014, DMDS 0.4%, XAD4, 24 hours at 30° C.",1.3 and 2.3
same,Optical densities at 600 nm,"[16]; M2014, DMDS 0.4%, XAD4, 42 hours at 30° C.",7.3
same,Optical densities at 600 nm,"[16]; M2014, DMDS 0.5%, XAD4, 42 hours at 30° C.",5.5
same,maximum amount of DMDS that allowed cell growth,"[16]; M2014, DMDS with Amberlite XAD4",0.4%
same,increase of the amount of DMDS that can be added before toxicity is observed,[16]; in the presence of Amberlite XAD4 versus direct addition,5 fold
same,growth of OM101 lawn,"[17]; 50 μl liquid DMDS in polypropylene cap, reaches cells only through gaseous state, 30° C., two days",complete bacterial lawn
same,killing zone,"[17]; 50 μl liquid DMDS placed into a well in the agar, 30° C.",no killing zone
same,killing zone,"[17]; 50 μl liquid DMDS spotted directly on the lawn, 30° C.",approximately 30 mm
same,toxicity of DMDS in the gas state to OM101,[17]; gas state,not toxic
